From patent US7326700B2, “Cyclohexenyl phenyl carboxamides tocolytic oxytocin receptor antagonists” (Wyeth, priority 2001, dated 2008)
Where a name gives a salt, the structure may show the parent alone.

The compounds below were run against T1, human vasopressin V2 receptor subtype (Homo sapiens, UniProt P30518) (assay: Vasopressin binding in CHO cell membranes expressing human vasopressin V2 subtype receptors ([3H]arginine vasopressin radioligand binding)). Details: 100 nM.
T1 construct: host or cells: CHO cells, stably transfected (pZeoSV vector)
From the text: Chinese Hamster Ovary (CHO) cells stably transfected with the human V2 subtype receptors were obtained from M. Thibonnier, Case Western Reserve University School of Medicine, Cleveland, Ohio.
CHO cells transfected with the human vasopressin V2 subtype receptors obtained from M. Thibonnier (pZeoSV vector) are allowed to grow to confluency (approx. >90%) in T-150 flasks under sterile conditions, in a cell culture medium consisting of F-12 Nutrient Mixture (HAM) with L-glutamine (Gibco Cat. #11765-054) containing 15 mM HEPES (Gibco Cat. #15630-080), 1% antibiotic/antimycotic (add 5 mL 100×, Gibco Cat. #15240-062 per 500 mL F-12), 250 μg/mL Zeocin (add 1.25 mL of 100 mg/mL Invitrogen R-250-01 per 500 mL F-12) and 10% Fetal Bovine Serum (Qualified, heat inactivated, Gibco Cat. #16140-063). The medium is removed by aspiration and the cells washed with 10 mL of Hank's Balanced Salt solution (Gibco Cat. #14175-095). The salt solution is removed by aspiration and the cells trypsinized with 5 mL of trypsin-EDTA (0.05% trypsin, 0.53 mM EDTA-4Na, Gibco Cat. #25300-070) for 1 min. The trypsin is removed by aspiration and the cells dislodged by tapping. Cell Culture medium (e.g. 30 mL for 1:30 split) is immediately added and mixed well to inactivate trypsin. 1 mL of detached cells is added to new culture flasks containing fresh Cell Culture medium (e.g. into 25 mL per T-150 flask), and mixed gently. The cells are incubated at 37° C. in 5% CO2. The medium is changed at 3 to 4 day interval (or as appropriate). The cells grow to confluency (approx. >75%-95%) within 7-8 days. All steps are done under sterile conditions.
The cells are washed twice gently with Hank's Balanced Salt solution (e.g. use 10 mL per T-150 flask). The excess solution is removed and the cells bathed for 15-30 min. in an enzyme-free Cell Dissociation Buffer (e.g. use 8 mL Hank's Based, Gibco Cat. #13150-016 per T-150 flask) until cells are loosened. The contents are transferred to centrifuge tubes (50 mL) kept in an ice bath. All subsequent steps are done at 4° C. The tubes are centrifuged at 300×g for 15 min (1380 rpm on SORVAL, Model RT6000D, using the rotor for 50 mL tubes). The supernatant is discarded and the cells suspended in homogeneizing buffer(10 mM Tris-HCl containing 0.25 M sucrose and 1 mM EDTA, pH 7.4) ensuring that the volume of the buffer is about ten times the volume of the cell pellet. The cells are pooled into a centrifuge tube (50 mL) and homogenized with Polytron at setting 6 for 10 sec. The homogenate is transferred into a Potter-Elvjehm homogeneizer and homogenized with 3 strokes. The homogenate is centrifuged at 1500×g for 60 min at 4° C. (3100 rpm using SORVAL, model RT6000D, using the rotor for 50 mL tubes). The pellet is discarded. The supernatant is centrifuged at 100,000×g for 60 min. at 4° C. (Beckman L8-80M ultracentrifuge; spin at 37,500 rpm with rotor type 70 Ti for 50 mL tubes; 38,000 rpm with type 80 Ti for 15 mL tubes; or 35,800 rpm with rotor type 45Ti). The supernantant is discarded and the pellet suspended in 3 to 4 mL of Tris buffer (50 mM TRIS-HCl, pH 7.4). The protein content is estimated by the Bradford or Lowry method. The volume of the membrane suspension is adjusted with the membrane buffer (50 mM Tris-HCl containing 0.1% BSA and 0.1 mM PMSF) to give 3.0 mg/mL (or as appropriate) of protein. The membranes are aliquoted and stored at −70° C.
In wells of a 96-well format microtiter plate, is added 90, 110 or 130 μL (to make up a final volume of 200 μL) of assay buffer containing 50 mM of Tris-HCl (pH 7.4), […], 1 mg % aprotinin, 1 mg % leupeptin, 2 mg % 1,10-phenanthroline, 10 mg % trypsin inhibitor, and 0.1 mM PMSF. The inhibitors are added on the day of the experiment. The components are mixed at room temperature, and then kept in ice bath following adjustment of the pH to 7.4. […]

T1 sequence (P30518 whole entry): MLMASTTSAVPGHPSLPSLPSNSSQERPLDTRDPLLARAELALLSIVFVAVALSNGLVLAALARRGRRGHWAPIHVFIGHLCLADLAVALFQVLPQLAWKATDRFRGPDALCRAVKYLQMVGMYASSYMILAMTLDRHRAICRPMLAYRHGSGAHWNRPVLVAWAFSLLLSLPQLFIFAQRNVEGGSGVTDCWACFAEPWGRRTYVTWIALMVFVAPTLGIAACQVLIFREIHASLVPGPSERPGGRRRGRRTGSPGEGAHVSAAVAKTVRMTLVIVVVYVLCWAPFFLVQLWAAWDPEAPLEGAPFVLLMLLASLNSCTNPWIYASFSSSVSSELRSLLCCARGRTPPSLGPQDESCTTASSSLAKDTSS

Structure (SMILES) | inhibition at 0.1 µM [%] | V2 % inhibition @ 100 nM [%]
COc1cc(C2=CCCCC2)c(Cl)cc1C(=O)N1Cc2ccc(C(=O)N(C)CCCN(C)C)n2Cc2ccccc21 [Example 2, 10-(5-Chloro-4-cyclohex-1-en-1-yl-2-methoxybenzoyl)-N-[3-(dimethylamino)propyl]-N-methyl-10,11-dihydro-5H-pyrrolo[2,1-c][1,4]benzodiazepine-3-carboxamide] | 4 | –
Cc1cc(C(=O)N2Cc3ccc(C(=O)N4CCN(C)CC4)n3Cc3ccccc32)ccc1C1=CCCc2ccccc21 [Example 6, {10-[4-(3,4-Dihydro-naphthalen-1-yl)-3-methyl-benzoyl]-10,11-dihydro-5H-benzo[e]pyrrolo[1,2-a][1,4]diazepin-3-yl}-(4-methyl-piperazin-1-yl)-methanone] | 17 | –
Cc1cc(C(=O)N2Cc3ccc(C(=O)N4CCN(CCCN(C)C)CC4)n3Cc3ccccc32)ccc1C1=CCCc2ccccc21 [Example 7, {10-[4-(3,4-Dihydro-naphthalen-1-yl)-3-methyl-benzoyl]-10,11-dihydro-5H-pyrrolo[2,1-c][1,4]benzodiazepin-3-yl}-[4-(3-dimethylamino-propyl)-piperazin-1-yl]-methanone] | 30 | –
CC1=C(c2ccc(C(=O)N3Cc4ccc(C(=O)N5CCN(C)CC5)n4Cc4ccccc43)cc2C)CCCC1O (stereo not shown) [Example 10, [4-(3-Hydroxy-2-methyl-cyclohex-1-en-1-yl)-3-methyl-phenyl]-[3-(4-methyl-piperazine-1carbonyl)-10,11-dihydro-5H-pyrrolo[2,1-c][1,4]benzodiazepin-10-yl]-methanone] | -8 | –
Cc1cc(C(=O)N2Cc3ccc(C(=O)NCCCN(C)C)n3Cc3ccccc32)ccc1C1=CCCCC1 [Example 14, 10-[4-(1-Cyclohex-1-en-1-yl)-3-methylbenzoyl]-N-[3-(dimethylamino)propyl]-10,11-dihydro-5H-pyrrolo[2,1-c][1,4]benzodiazepine-3-carboxamide] | – | 5
Cc1cc(C(=O)N2Cc3ccc(C(=O)N(C)CCN(C)C)n3Cc3ccccc32)ccc1C1=CCCCC1 [Example 15, 10-[4-(1-Cyclohex-1-en-1-yl)-3-methylbenzoyl]-N-[2-(dimethylamino)ethyl]-N-methyl-10,11-dihydro-5H-pyrrolo[2,1-c][1,4]benzodiazepine-3-carboxamide] | – | 5
Cc1cc(C(=O)N2Cc3ccc(C(=O)N(C)CCCN(C)C)n3Cc3ccccc32)ccc1C1=CCCCC1 [Example 16, 10-[4-(1-Cyclohex-1-en-1-yl)-3-methylbenzoyl]-N-[3-(dimethylamino)propyl]-N-methyl-10,11-dihydro-5H-pyrrolo[2,1-c][1 ,4]benzodiazepine-3-carboxamide] | – | 10
Cc1cc(C(=O)N2Cc3ccc(C(=O)NCCCn4ccnc4)n3Cc3ccccc32)ccc1C1=CCCCC1 [Example 18, 10-[4-(1-Cyclohex-1-en-1-yl)-3-methylbenzoyl]-N-[3-(1H-imidazol-1-yl)propyl]10,11-dihydro-5H-pyrrolo[2,1-c][1,4]benzodiazepine-3-carboxamide] | – | 20
Cc1cc(C(=O)N2Cc3ccc(C(=O)NCCN4CCCCC4)n3Cc3ccccc32)ccc1C1=CCCCC1 [Example 20, 10-[4-(1-Cyclohex-1-en-1-yl)-3-methylbenzoyl]-N-[2-(1-piperidinyl)ethyl]-10,11-dihydro-5H-pyrrolo[2,1-c][1,4]benzodiazepine-3-carboxamide] | – | 14
Cc1cc(C(=O)N2Cc3ccc(C(=O)NCCC4CCCN4C)n3Cc3ccccc32)ccc1C1=CCCCC1 (stereo not shown) [Example 21, 10-[4-(1-Cyclohex-1-en-1-yl)-3-methylbenzoyl]-N-[2-(1-methyl-2-pyrrolidinyl)ethyl]-10,11-dihydro-5H-pyrrolo[2,1-c][1,4]benzodiazepine-3-carboxamide] | – | 11

Next, values leading:

inhibition at 0.1 µM [%] | V2 % inhibition @ 100 nM [%] | Structure (SMILES)
11 | – | Cc1cc(C(=O)N2Cc3ccc(C(=O)N4CCN(C)CC4)n3Cc3ccccc32)ccc1C1=CCCCC1 [Example 4, [10-(4-Cyclohex-1-en-1-yl-3-methyl-benzoyl)-10,11-dihydro-5H-pyrrolo[2,1-c][1,4]benzodiazepin-3-yl]-(4-methyl-piperazin-1-yl)-methanone]
19 | – | Cc1cc(C(=O)N2Cc3ccc(C(=O)N4CCN(CCCN(C)C)CC4)n3Cc3ccccc32)ccc1C1=CCCCC1 [Example 5, [10-(4-Cyclohex-1-en-1-yl-3-methyl-benzoyl)-10,11-dihydro-5H-pyrrolo[2,1-c][1,4]benzodiazepin-3-yl]-[4-(3-dimethylamino-propyl)-piperazin-1-yl]-methanone]
– | 3 | Cc1cc(C(=O)N2Cc3ccc(C(=O)N4CCCN(C)CC4)n3Cc3ccccc32)ccc1C1=CCCCC1 [Example 13, {10-[4-(1-Cyclohex-1-en-1-yl)-3-methylbenzoyl]-10,11-dihydro-5H-pyrrolo[2,1-c][1,4]benzodiazepin-3-yl}(4-methyl-1,4-diazepan-1-yl)methanone]
– | 2 | Cc1cc(C(=O)N2Cc3ccc(C(=O)N4CCC(N5CCCCC5)CC4)n3Cc3ccccc32)ccc1C1=CCCCC1 [Example 17, {10-[4-(1-Cyclohex-1-en-1-yl)-3-methylbenzoyl]-10,11-dihydro-5H-pyrrolo[2,1-c][1,4]benzodiazepin-3-yl}[4-(1-piperidinyl)-1-piperidinyl]methanone]
– | 18 | Cc1cc(C(=O)N2Cc3ccc(C(=O)N4CCC(N5CCCC5)CC4)n3Cc3ccccc32)ccc1C1=CCCCC1 [Example 19, {10-[4-(1-Cyclohex-1-en-1-yl)-3-methylbenzoyl]-10,11-dihydro-5H-pyrrolo[2,1c][1,4]benzodiazepin-3-yl}[4-(1-pyrrolidinyl)-1-piperidinyl]methanone]
– | 13 | Cc1cc(C(=O)N2Cc3ccc(C(=O)N4CCN(CCN(C)C)CC4)n3Cc3ccccc32)ccc1C1=CCCCC1 [Example 22, {10-[4-(1-Cyclohex-1-en-1-yl)-3-methylbenzoyl]-10,11-dihydro-5H-pyrrolo[2,1-c][1,4]benzodiazepin-3-yl}{4-[2-(dimethylamino)ethyl]-1-piperazinyl}methanone]
– | 18 | Cc1cc(C(=O)N2Cc3ccc(C(=O)N4CCN(CCN5CCOCC5)CC4)n3Cc3ccccc32)ccc1C1=CCCCC1 [Example 23, {10-[4-(1-Cyclohex-1-en-1-yl)-3-methylbenzoyl]-10,11-dihydro-5H-pyrrolo[2,1-c][1,4]benzodiazepin-3-yl}{4-[2-(4-morpholinyl)ethyl]-1-piperazinyl}methanone]
– | 12 | C=CCN1CCN(C(=O)c2ccc3n2Cc2ccccc2N(C(=O)c2ccc(C4=CCCCC4)c(C)c2)C3)CC1 [Example 24, (4-Allyl-1-piperazinyl){10-[4-(1-cyclohex-1-en-1-yl)-3-methylbenzoyl]-10,11-dihydro-5H-pyrrolo[2,1-c][1,4]benzodiazepin-3-yl}methanone]

Same assay, conditions: value in parentheses

IC50 [µM] | Structure (SMILES)
5.84 | COc1cc(C2=CCCCC2)c(Cl)cc1C(=O)N1Cc2ccc(C(=O)N(C)CCCN(C)C)n2Cc2ccccc21 [Example 3, 10-(5-Chloro-4-cyclohex-1-en-1-yl-2-methoxybenzoyl)-N-[3-(dimethylamino)propyl]-N-methyl-10,11-dihydro-5H-pyrrolo[2,1-c][1,4]benzodiazepine-3-carboxamide citric acid salt]
